The target of this assay is T1, abc isoform of human TMEM16A channel expressed in CHO cells (Homo sapiens, UniProt Q5XXA6, DEL476-501).
T1 construct: expressed in transfected cells; host or cells: CHO cells, doxycycline-inducible expression under Blasticidin/Zeocin selection
T1 sequence (Q5XXA6 with tags, fused parts or gaps isoform Q5XXA6-5 DEL539-564): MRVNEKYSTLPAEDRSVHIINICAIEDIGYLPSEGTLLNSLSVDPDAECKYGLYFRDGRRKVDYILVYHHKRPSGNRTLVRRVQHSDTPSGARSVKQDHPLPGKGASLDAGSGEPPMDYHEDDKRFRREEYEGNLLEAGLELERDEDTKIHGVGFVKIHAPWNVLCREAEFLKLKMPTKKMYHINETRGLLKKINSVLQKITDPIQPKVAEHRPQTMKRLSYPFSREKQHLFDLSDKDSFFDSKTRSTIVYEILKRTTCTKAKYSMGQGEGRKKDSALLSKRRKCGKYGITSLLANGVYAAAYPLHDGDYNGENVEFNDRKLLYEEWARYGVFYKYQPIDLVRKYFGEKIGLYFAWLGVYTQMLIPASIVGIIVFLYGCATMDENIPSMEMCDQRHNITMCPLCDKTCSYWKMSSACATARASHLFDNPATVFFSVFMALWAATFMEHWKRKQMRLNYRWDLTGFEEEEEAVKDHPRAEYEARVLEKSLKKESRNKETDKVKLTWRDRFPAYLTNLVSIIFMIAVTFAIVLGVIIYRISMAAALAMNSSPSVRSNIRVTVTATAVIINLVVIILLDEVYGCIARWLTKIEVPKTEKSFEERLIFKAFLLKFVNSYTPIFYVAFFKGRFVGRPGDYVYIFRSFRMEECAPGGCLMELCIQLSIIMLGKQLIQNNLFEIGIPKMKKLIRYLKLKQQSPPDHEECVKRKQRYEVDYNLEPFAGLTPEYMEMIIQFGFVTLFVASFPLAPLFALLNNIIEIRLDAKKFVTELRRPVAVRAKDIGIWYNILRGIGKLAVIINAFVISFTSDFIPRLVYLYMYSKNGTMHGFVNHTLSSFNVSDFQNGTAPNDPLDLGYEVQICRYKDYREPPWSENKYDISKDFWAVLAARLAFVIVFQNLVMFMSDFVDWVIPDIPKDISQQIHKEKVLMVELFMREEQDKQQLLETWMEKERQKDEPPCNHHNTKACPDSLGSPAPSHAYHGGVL
The assay can be described thus: Automated patch clamping (QPatch) assay to measure TMEM16A activity in whole-cell. The format is cell-based. The conditions noted are these: for EC50: CHO cells expressing human TMEM16A (abc), whole-cell automated patch clamp, Hill fit, read-out: TMEM16A QPATCH assay EC50 V3 EC50; for Emax: CHO, maximum current at highest dose relative to reference potentiator at maximal concentration (upper limit) and vehicle (lower limit), read-out: TMEM16A QPATCH assay EC50 V3 Assay Window (% TMEM16A max activation). As for the experimental part: Automated Patch Clamping Assay to Measure TMEM16A Activity in Whole-Cell
Chinese hamster ovary cells (CHO) cells expressing abc isoform of human TMEM16A channel (Ref) were grown in vented cell-culture flasks (Corning) containing cell culture medium (1×F-12 Ham, 10% FBS, 1% Penicillin-streptomycin, 5 μg/mL Blasticidin S HCl, 400 μg/mL Zeocin), maintained at 37° C. in an incubator with 5% C02, 95% 02 and 100% humidity. The cells were passaged every 2-3 days at 80-90% confluence by aspirating the cell culture medium, washing twice with 10 mL D-PBS then incubating with 4 mL Trypsin-EDTA for no longer than 5 minutes. Trypsin was neutralized with the addition of 32 mL growth medium to the cell suspension, the cells were counted using a viable-cell counter (Vi-CELL; Beckmann-Coulter) and new flasks were seeded at a cell density of 0.01, 0.02, or 0.05×10^6 cells per cm2 for 3, 2, or 1 day(s) growth, respectively. Cell suspension was diluted in the new 175 cm2 flask with 50 mL of growth medium. Doxycycline was used to induce the expression of TMEM16A channel protein and was added directly to the culture flask 18-24 hours in advance of assay at a final concentration of 1 μg/mL. Induced cells were washed with D-PBS and detached from their culture flasks by adding 10 mL of Detachin and incubating for 10 minutes. Once detached, 5 mL of QPatch assay medium (1×CHO-S-SFM II (Sigma), 25 mM HEPES) was added and the resultant cell suspension counted using the Vi-CELL viable cell counter. The optimal cell density for this QPatch assay is 2-5×1 06 cells/mL; re-adjusted as necessary with QPatch assay medium.
The ion channel activity of TMEM16A (abc) expressed in CHO cells was assed using an automated patch clamp system (Qpatch, Sophion). These systems use planar patch-clamp technology to enable high-resistance, continuous whole-cell recordings from multiple cells in parallel, whilst maintaining each individual cell as an isolated experiment. First, each well was primed with intracellular and extracellular solutions described below. Cells were spun down, washed and then resuspended using extracellular solution. Intracellular solution: 130 mM N-methyl-D-glucamine, 10 mM EGTA, 20 mM CaCl2, 1 mM MgCl2, 10 mM HEPES 10, 10 mM BAPTA, 99 mM Sucrose, 2 mM Mg-ATP, pH 7.3, 320 mOsm Extracellular solution: 130 mM N-methyl-D-glucamine, 10 mM EGTA, 20 mM CaCl2, 1 mM MgCl2, 10 mM HEPES 10, 10 mM BAPTA, 99 mM Sucrose, 2 mM Mg-ATP, pH 7.3, 320 mOsm. Resuspended cells were then added to each well and suction was applied from the intracellular side in order to position a cell on the chip aperture, form a high resistance (GO) seal and achieve a whole-cell recording configuration. Following successful whole cell access, cell membranes were maintained at a voltage of −70 mV until the voltage protocol is applied. From this voltage, membranes were depolarized to +70 mV for 1500 ms, and then hyperpolarized to […] before being depolarized again from −90 to +70 mV in a continuous ramp waveform. At the end of the ramp, the membrane voltage is stepped back to −70 mV until the next waveform was applied. Compounds were dissolved at 10 mM in 100% DMSO and then diluted into extracellular solution (0.3% DMSO final) to the desired final concentration. The assay lower and upper limit were defined as follow, average amplitude (nA) of the last 3 sweeps in the vehicle addition of each cell was considered the basal current (lower limit); the average maximum current response in 3 cells for a reference potentiator at maximal concentration (upper limit). Current values for each compound concentration were then plotted against […]. EC50 curves are fitted to concentration-response data using curve-fitting functions (Hill fit) within the QPatch software. Curve fitting is constrained between the lowest concentration (vehicle-only addition) and the highest current value measured within the concentration range. […]

We go through 16 molecules from patent US20220306617A1, “SUBSTITUTED 1,3-PHENYL HETEROARYL DERIVATIVES AND THEIR USE IN THE TREATMENT OF DISEASE” (NOVARTIS AG, priority 2019, published 2022).

`CCC(CC)NC(=O)c1cc(-c2cccc(-c3ncc(C(=O)Nc4cc(C)cc(C)c4)o3)c2)[nH]n1` [Example 1.3]: the EC50 (in general, the midpoint of the concentration-response curve) was determined as 560 nM and the Emax turned out to be 82%.

Take `COC(=O)[C@H](CC1CCCCC1)NC(=O)c1cnc(-c2cccc(-c3cc(C(=O)NC(C4CC4)C4CC4)n[nH]3)c2)o1` [Example 1.4, (S)-Methyl 3-Cyclohexyl-2-(2-(3-(3-((Dicyclopropylmethyl)Carbamoyl)-1H-Pyrazol-5-Yl)Phenyl)Oxazole-5-Carboxamido)Propanoate]: the 50% effective concentration (EC50) was 910 nM and the Emax turned out to be 103%.

Turning to `COC(=O)[C@@H](NC(=O)c1cnc(-c2cccc(-c3cc(C(=O)N[C@H](C)C4CC4)n[nH]3)c2)o1)C(C)C` [Example 1.5, (S)-Methyl 2-(2-(3-(3-(((R)-1-Cyclopropylethyl)Carbamoyl)-1H-Pyrazol-5-Yl)Phenyl)Oxazole-5-Carboxamido)-3-Methylbutanoate], the EC50 worked out at 60 nM and the Emax worked out at 98%.

`CCC(CC)NC(=O)c1cc(-c2cccc(-c3ncc(C(=O)N[C@@H](C)C4CC4)o3)c2)[nH]n1` [Example 1.6, (S)-N-(1-Cyclopropylethyl)-2-(3-(3-(Pentan-3-Ylcarbamoyl)-1H-Pyrazol-5-Yl)Phenyl)Oxazole-5-Carboxamide]: the half-maximal effective concentration (EC50) was determined as 130 nM and the Emax came to 61%.

For `COC(=O)[C@@H](NC(=O)c1cnc(-c2cccc(-c3cc(C(=O)N[C@@H](C)C4CC4)n[nH]3)c2)o1)C(C)C` [Example 1.7, (S)-Methyl 2-(2-(3-(3-(((S)-1-Cyclopropylethyl)Carbamoyl)-1H-Pyrazol-5-yl)Phenyl)Oxazole-5-Carboxamido)-3-Methylbutanoate], the concentration for a half-maximal effect (EC50) was determined as 90 nM and the Emax came out at 69%.

In the case of `C[C@H](NC(=O)c1cc(-c2cccc(-c3ncc(C(=O)N[C@H](C)C4CC4)o3)c2)[nH]n1)C1CC1` [Example 1.8, N-((R)-1-Cyclopropylethyl)-2-(3-(3-(((S)-1-Cyclopropylethyl)Carbamoyl)-1H-Pyrazol-5-Yl)Phenyl)Oxazole-5-Carboxamide], the half-maximal effective concentration (EC50) turned out to be 170 nM and the Emax was found to be 54%.

Turning to `CCC(CC)NC(=O)c1cc(-c2cccc(-c3ncc(C(=O)N[C@H](C(=O)OC(C)(C)C)C(C)C)o3)c2)[nH]n1` [Example 1.9, (S)-Tert-Butyl 3-Methyl-2-(2-(3-(3-(Pentan-3-Ylcarbamoyl)-1H-Pyrazol-5-yl)Phenyl)Oxazole-5-Carboxamido)Butanoate], the EC50 amounted to 30 nM and the Emax was found to be 146%.

Regarding `CCC(CC)NC(=O)c1cc(-c2cccc(-c3ncc(C(=O)NC(CC)C(C)C)o3)c2)[nH]n1` (centres unmarked) [Example 1.11, N-(2-Methylpentan-3-Yl)-2-(3-(3-(Pentan-3-Ylcarbamoyl)-1H-Pyrazol-5-yl)Phenyl)Oxazole-5-Carboxamide], the half-maximal effective concentration (EC50) stood at 270 nM and the Emax was 165%.

For `CCOC(=O)[C@@H](NC(=O)c1cnc(-c2cccc(-c3cc(C(=O)NC(C4CC4)C4CC4)[nH]n3)c2)o1)C(C)C` [Example 1.12, (S)-Ethyl 2-(2-(3-(5-((Dicyclopropylmethyl)Carbamoyl)-1H-Pyrazol-3-yl)Phenyl)Oxazole-5-Carboxamido)-3-Methylbutanoate], the EC50 was 20 nM and the Emax was determined as 87%.

As to `CCC(CC)NC(=O)c1cc(-c2cccc(-c3ncc(C(=O)NC(C)(C)C)o3)c2)[nH]n1` [Example 1.13, N-(Tert-Butyl)-2-(3-(3-(Pentan-3-Ylcarbamoyl)-1H-Pyrazol-5-yl)Phenyl)Oxazole-5-Carboxamide], the half-maximal effective concentration (EC50) worked out at 400 nM and the Emax is 112%.

Consider `CCOC(=O)[C@H](CCSC)NC(=O)c1cnc(-c2cccc(-c3cc(C(=O)NC(CC)CC)n[nH]3)c2)o1` [Example 1.14, (S)-Ethyl 4-(Methylthio)-2-(2-(3-(3-(Pentan-3-Ylcarbamoyl)-1H-Pyrazol-5-yl)Phenyl)Oxazole-5-Carboxamido)Butanoate], for which the EC50 worked out at 680 nM and the Emax came out at 111%.

Regarding `CCC(CC)NC(=O)c1cc(-c2cccc(-c3ncc(C(=O)N[C@H](C(=O)OC)c4ccccc4)o3)c2)[nH]n1` [Example 1.15, (S)-Methyl 2-(2-(3-(3-(Pentan-3-Ylcarbamoyl)-1H-Pyrazol-5-yl)Phenyl)Oxazole-5-Carboxamido)-2-Phenylacetate], the EC50 is 410 nM and the Emax turned out to be 100%.

In the case of `CCC(CC)NC(=O)c1cc(-c2cccc(-c3ncc(C(=O)N[C@@H](CC(C)C)C(=O)NCC(=O)OC(C)(C)C)o3)c2)[nH]n1` [Example 1.16, (S)-Tert-Butyl 2-(4-Methyl-2-(2-(3-(3-(Pentan-3-Ylcarbamoyl)-1 H-Pyrazol-5-yl)Phenyl)Oxazole-5-Carboxamido)Pentanamido)Acetate], the half-maximal effective concentration (EC50) worked out at 830 nM and the Emax is 100%.

Turning to `CCC(CC)NC(=O)c1cc(-c2cccc(-c3ncc(C(=O)NCc4ccc(F)cc4)o3)c2)[nH]n1` [Example 1.17, N-(4-Fluorobenzyl)-2-(3-(3-(Pentan-3-Ylcarbamoyl)-1H-Pyrazol-5-yl)Phenyl)Oxazole-5-Carboxamide], the EC50 was 580 nM and the Emax was 94%.

As for `CCC(CC)NC(=O)c1cc(-c2cccc(-c3ncc(C(=O)NCC4CCCCO4)o3)c2)[nH]n1` (centres unmarked) [Example 1.18, 2-(3-(3-(Pentan-3-Ylcarbamoyl)-1H-Pyrazol-5-Yl)Phenyl)-N-((Tetrahydro-2H-Pyran-2-Yl)Methyl)Oxazole-5-Carboxamide], the EC50 was 180 nM and the Emax is 39%.

Regarding `CCC(CC)NC(=O)c1cc(-c2cccc(-c3ncc(C(=O)NCc4ccccc4)o3)c2)[nH]n1` [Example 1.19, N-Benzyl-2-(3-(3-(Pentan-3-Ylcarbamoyl)-1H-Pyrazol-5-Yl)Phenyl)Oxazole-5-Carboxamide], the EC50 stood at 130 nM and the Emax is 69%.
